Measured values reported in ChEMBL document CHEMBL1201862, “PubChem BioAssay data set” (2004).
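A five-concentration, 48-hour dose response in 96-well plates underlies each endpoint, interpolated linearly between surrounding concentrations. GI50 marks 50% less growth.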 Calls of active or inactive are those of the source. Rule as the data show it: active = GI50 up to about 1.1 µM and inactive = higher.

Columns and labels:
Assay in all cases: DTP human tumour cell line panel, 48 h
DU-145 = tested on: DU-145
NCI-H23 = tested on: NCI-H23
M14 = tested on: M14
HCT-15 = tested on: HCT-15
SK-MEL-2 = tested on: SK-MEL-2
OVCAR-5 = tested on: OVCAR-5
KM12 = tested on: KM12
HT-29 = tested on: HT-29
TK-10 = tested on: TK-10
CAKI-1 = tested on: CAKI-1
MCF7 = tested on: MCF7
HOP-92 = tested on: HOP-92
SN12C = tested on: SN12C
UO-31 = tested on: UO-31
SR = tested on: SR
UACC-62 = tested on: UACC-62
SNB-75 = tested on: SNB-75
SNB-19 = tested on: SNB-19
ACHN = tested on: ACHN
HOP-62 = tested on: HOP-62
MDA-N = tested on: MDA-N
SW-620 = tested on: SW-620
A549 = tested on: A549
MDA-MB-231 = tested on: MDA-MB-231
NCI-H460 = tested on: NCI-H460
IGROV-1 = tested on: IGROV-1
OVCAR-8 = tested on: OVCAR-8
786-0 = tested on: 786-0
HCC 2998 = tested on: HCC 2998
SK-OV-3 = tested on: SK-OV-3
COLO 205 = tested on: COLO 205
NCI-H226 = tested on: NCI-H226
SF-539 = tested on: SF-539
SF-295 = tested on: SF-295
LOX IMVI = tested on: LOX IMVI
BT-549 = tested on: BT-549
EKVX = tested on: EKVX
HCT-116 = tested on: HCT-116
MDA-MB-435 = tested on: MDA-MB-435
MOLT-4 = tested on: MOLT-4
NCI/ADR-RES = tested on: NCI/ADR-RES
U-251 = tested on: U-251
OVCAR-3 = tested on: OVCAR-3
K562 = tested on: K562
T47D = tested on: T47D
OVCAR-4 = tested on: OVCAR-4
RPMI-8226 = tested on: RPMI-8226
SK-MEL-5 = tested on: SK-MEL-5
CCRF-CEM = tested on: CCRF-CEM
RXF 393 = tested on: RXF 393
UACC-257 = tested on: UACC-257
A498 = tested on: A498
PC-3 = tested on: PC-3
Malme-3M = tested on: Malme-3M
SK-MEL-28 = tested on: SK-MEL-28
SF-268 = tested on: SF-268
NCI-H522 = tested on: NCI-H522

O=C1c2ccccc2-n2c1nc1ccc(Cl)cc1c2=O
GI50 (DU-145): > 100 µM (inactive) | GI50 (NCI-H23): 66.2 µM (inactive) | GI50 (M14): > 100 µM (inactive) | GI50 (HCT-15): 56.1 µM | GI50 (SK-MEL-2): 89.9 µM (inactive) | GI50 (OVCAR-5): > 100 µM (inactive) | GI50 (KM12): > 100 µM (inactive) | GI50 (HT-29): > 100 µM (inactive) | GI50 (TK-10): 77.4 µM (inactive) | GI50 (CAKI-1): 33 µM (inactive) | GI50 (MCF7): 83.9 µM (inactive) | GI50 (HOP-92): 45.3 µM (inactive) | GI50 (SN12C): > 100 µM (inactive) | GI50 (UO-31): 59.4 µM (inactive) | GI50 (SR): 77.4 µM (inactive) | GI50 (UACC-62): 16.3 µM (inactive) | GI50 (SNB-75): 27.5 µM (inactive) | GI50 (SNB-19): > 100 µM (inactive) | GI50 (ACHN): > 100 µM (inactive) | GI50 (HOP-62): 30.8 µM (inactive) | GI50 (MDA-N): 16.6 µM (inactive) | GI50 (SW-620): > 100 µM (inactive) | GI50 (A549): 26.1 µM (inactive) | GI50 (MDA-MB-231): 62.1 µM (inactive) | GI50 (NCI-H460): > 100 µM (inactive) | GI50 (IGROV-1): 78.2 µM (inactive) | GI50 (OVCAR-8): 35.2 µM (inactive) | GI50 (786-0): 26.1 µM (inactive) | GI50 (HCC 2998): > 100 µM (inactive) | GI50 (SK-OV-3): > 100 µM (inactive) | GI50 (COLO 205): > 100 µM (inactive) | GI50 (NCI-H226): > 100 µM (inactive) | GI50 (SF-539): > 100 µM (inactive) | GI50 (SF-295): 42.3 µM (inactive) | GI50 (LOX IMVI): > 100 µM (inactive) | GI50 (BT-549): > 100 µM (inactive) | GI50 (EKVX): 92 µM (inactive) | GI50 (HCT-116): 71.4 µM (inactive) | GI50 (MDA-MB-435): 15.6 µM (inactive) | GI50 (MOLT-4): 78.3 µM (inactive) | GI50 (NCI/ADR-RES): > 100 µM (inactive) | GI50 (U-251): 34.5 µM (inactive) | GI50 (OVCAR-3): > 100 µM (inactive) | GI50 (K562): 14.3 µM (inactive) | GI50 (T47D): 0.474 µM (active) | GI50 (OVCAR-4): > 100 µM (inactive) | GI50 (RPMI-8226): 1.36 µM (inactive) | GI50 (SK-MEL-5): > 100 µM (inactive) | GI50 (CCRF-CEM): 3.2 µM (inactive) | GI50 (RXF 393): 3.48 µM (inactive) | GI50 (UACC-257): 42.1 µM (inactive) | GI50 (A498): > 100 µM (inactive) | GI50 (PC-3): > 100 µM (inactive)

Cc1ccc(S(=O)(=O)N2CCC(=O)c3cc(Br)ccc32)cc1
GI50 (DU-145): 8.67 µM (inactive) | GI50 (NCI-H23): 19.2 µM (inactive) | GI50 (M14): 5.06 µM (inactive) | GI50 (HCT-15): 4.88 µM | GI50 (SK-MEL-2): 10.3 µM (inactive) | GI50 (OVCAR-5): 42.4 µM (inactive) | GI50 (KM12): 3.24 µM (inactive) | GI50 (HT-29): 6.25 µM (inactive) | GI50 (TK-10): 10.7 µM (inactive) | GI50 (CAKI-1): 11.8 µM (inactive) | GI50 (Malme-3M): 22 µM (inactive) | GI50 (MCF7): 4.45 µM (inactive) | GI50 (HOP-92): 18.6 µM (inactive) | GI50 (SN12C): 12.9 µM (inactive) | GI50 (UO-31): 10.9 µM (inactive) | GI50 (SR): 3.96 µM (inactive) | GI50 (UACC-62): 5.21 µM (inactive) | GI50 (SNB-75): 14.6 µM (inactive) | GI50 (SNB-19): 18.4 µM (inactive) | GI50 (ACHN): 16.8 µM (inactive) | GI50 (HOP-62): 7.16 µM (inactive) | GI50 (MDA-N): 3.01 µM (inactive) | GI50 (SW-620): 6.04 µM (inactive) | GI50 (A549): 13.6 µM (inactive) | GI50 (MDA-MB-231): 6.44 µM (inactive) | GI50 (NCI-H460): 19.3 µM (inactive) | GI50 (IGROV-1): 6.1 µM (inactive) | GI50 (OVCAR-8): 14.4 µM (inactive) | GI50 (786-0): 10.1 µM (inactive) | GI50 (HCC 2998): 24 µM (inactive) | GI50 (SK-OV-3): 20.5 µM (inactive) | GI50 (SK-MEL-28): 24.7 µM (inactive) | GI50 (COLO 205): 16.9 µM (inactive) | GI50 (NCI-H226): 37.7 µM (inactive) | GI50 (SF-539): 5 µM (inactive) | GI50 (SF-295): 10.1 µM (inactive) | GI50 (LOX IMVI): 6.52 µM (inactive) | GI50 (BT-549): 13.9 µM (inactive) | GI50 (EKVX): 23.9 µM (inactive) | GI50 (SF-268): 18.2 µM (inactive) | GI50 (HCT-116): 4.72 µM (inactive) | GI50 (MDA-MB-435): 1.79 µM (inactive) | GI50 (MOLT-4): 4.51 µM (inactive) | GI50 (NCI/ADR-RES): 6.56 µM (inactive) | GI50 (U-251): 3.72 µM (inactive) | GI50 (OVCAR-3): 9.93 µM (inactive) | GI50 (K562): 4.57 µM (inactive) | GI50 (T47D): 23.1 µM (inactive) | GI50 (NCI-H522): 7.93 µM (inactive) | GI50 (OVCAR-4): 16.8 µM (inactive) | GI50 (RPMI-8226): 12.2 µM (inactive) | GI50 (SK-MEL-5): 7.05 µM (inactive) | GI50 (RXF 393): 12.5 µM (inactive) | GI50 (UACC-257): 6.95 µM (inactive) | GI50 (A498): 15 µM (inactive) | GI50 (PC-3): 6.01 µM (inactive)
